Among the test systems are DLD-1 colon; KM20L2 colon; LXFL 529 NSCLC; M19-MEL melanoma; SNB-78 CNS; XF 498 CNS; DMS 114 small cell lung; HOP-18 NSCLC; P388/ADR leukemia; SN12K1 renal; RXF-631 renal.
Holding throughout (experiment): NCI tumour cell line growth inhibition, 48 h

The values below come from PubChem BioAssay (NCI).

Structures are written as SMILES. Several values for one entry are separate records, joined by “and”; a condition that tells them apart may be missing. Equal values may be shown once.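 96-well plates; 48 h exposure; 5 concentrations. Endpoints by linear interpolation between flanking doses. Not reached: highest tested concentration assigned. At the GI50, growth is halved. Definition used: TGI = concentration required for complete inhibition of growth.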

As to `Cc1c(-c2coc(-c3ccc(Cl)cc3)n2)c(=O)n(-c2ccccc2)n1C`, the TGI in the assay with DLD-1 colon, with KM20L2 colon, in the assay on LXFL 529 NSCLC, with M19-MEL melanoma, with SNB-78 CNS and with XF 498 CNS was more than 100 µM in each case.
As for `CCN(CC)c1ccc(C(=C2C=CC(=[N+](CC)CC)C=C2)c2ccccc2)cc1`, the TGI with DLD-1 colon was 0.193 µM; in the assay on DMS 114 small cell lung, 0.208 µM; with KM20L2 colon it was 0.117 µM; in the assay on LXFL 529 NSCLC, 0.115 µM; with M19-MEL melanoma, 0.158 µM; with SNB-78 CNS it was 0.237 µM. In the assay on XF 498 CNS, the TGI turned out to be 0.0391 µM.
For the molecule `C=C1C(=O)C[C@@]23CCC[C@@]12CC(O)C3` (some centres undefined), the TGI in the assay with DLD-1 colon was 54.8 µM; in the assay with DMS 114 small cell lung, 38.3 µM; with HOP-18 NSCLC, 37.4 µM; with KM20L2 colon it was 47.9 µM; in the assay on M19-MEL melanoma it was more than 70.2 µM; in the assay on P388/ADR leukemia, 32.4 µM. Further, the values for the TGI with SN12K1 renal, in the assay with SNB-78 CNS and with XF 498 CNS were 39.6 µM, 99 µM and 41.1 µM, respectively.
Turning to `COc1cc2c(c(OC)c1OC)-c1ccc(SC)c(=O)cc1[C@@H](NC(=O)c1ccc(C#N)cc1)CC2`, the TGI in the assay on DLD-1 colon was more than 100 µM; in the assay on DMS 114 small cell lung, less than 0.01 µM; in the assay with KM20L2 colon, less than 0.01 µM; in the assay with LXFL 529 NSCLC, 18.3 µM; in the assay with M19-MEL melanoma it was more than 100 µM; in the assay on SNB-78 CNS, 83.7 µM.
For the molecule `CC(=O)c1c(O)c(C)c(O)c2c1OC1=CC(=O)C(C(C)=O)C(=O)C12C` (centres undefined), the GI50 in the assay with DLD-1 colon is 4.9 µM and 16.1 µM; with DMS 114 small cell lung, 6.22 µM and 18.5 µM; in the assay with HOP-18 NSCLC, 3.28 µM and 14.6 µM; with KM20L2 colon, 4.99 µM and 27 µM; in the assay with M19-MEL melanoma, 5.4 µM and 24.9 µM; in the assay with P388/ADR leukemia, 5.92 µM and 20.1 µM. Also, the GI50 in the assay on SN12K1 renal was 4.99 µM and 14.1 µM; with SNB-78 CNS it was 8.87 µM and 28.8 µM. In addition, the TGI was 29.9 µM and 69 µM in the assay with DLD-1 colon; 29.9 µM and 58.3 µM with DMS 114 small cell lung; 10.6 µM and 67.2 µM with HOP-18 NSCLC; 16.9 µM and 65.3 µM with KM20L2 colon; 44.4 µM and 79.3 µM in the assay with M19-MEL melanoma; 44.1 µM and 61.5 µM with P388/ADR leukemia. Besides, the TGI is 19.4 µM and 39.3 µM in the assay on SN12K1 renal; 48.6 µM and 80.4 µM in the assay with SNB-78 CNS; 0.807 µM and 0.835 µM in the assay on XF 498 CNS.
`CC(=O)Nc1ccc(C(=O)N2N=C(C)/C(=C/c3cccc(O)c3)C2=O)cc1`: the TGI with DLD-1 colon, with DMS 114 small cell lung, in the assay on M19-MEL melanoma and in the assay with XF 498 CNS was more than 100 µM throughout.
Turning to `Clc1ccccc1C1=NN(c2ccccc2)C2c3cc(Br)ccc3OCC12` (centres undefined), the TGI in the assay with DLD-1 colon, in the assay on DMS 114 small cell lung, in the assay on HOP-18 NSCLC, in the assay on KM20L2 colon, in the assay on LXFL 529 NSCLC and in the assay with M19-MEL melanoma was more than 100 µM in each case. Also, the TGI with SNB-78 CNS and in the assay on XF 498 CNS was more than 100 µM in each case.
For the molecule `Cc1[nH]c(=O)nc(N/N=C/c2ccc(O)cc2)c1C(=O)Nc1ccc(Cl)cc1`, the TGI with DLD-1 colon, in the assay with DMS 114 small cell lung, in the assay with HOP-18 NSCLC, in the assay with KM20L2 colon, with LXFL 529 NSCLC and in the assay with M19-MEL melanoma was more than 100 µM throughout. Further, the TGI in the assay on RXF-631 renal and in the assay with SNB-78 CNS was more than 100 µM in each case.
For `COc1cc2cc3c4c(cc(OC)c(OC)c4c2cc1OC)CCN3C(=O)OCCBr`, the TGI in the assay with DLD-1 colon, with KM20L2 colon, in the assay with M19-MEL melanoma, in the assay with SNB-78 CNS and with XF 498 CNS was more than 100 µM in each case.
As to `COc1cc(CC(=O)c2ccc3c(c2)OCO3)cc(OC)c1OC`, the TGI with DLD-1 colon is more than 100 µM; in the assay on DMS 114 small cell lung, 92.7 µM; in the assay on HOP-18 NSCLC, more than 100 µM; with KM20L2 colon it was more than 100 µM; with LXFL 529 NSCLC it was more than 100 µM; with M19-MEL melanoma, more than 100 µM. Further, the TGI with RXF-631 renal and in the assay with SNB-78 CNS was more than 100 µM each time.
Regarding `Fc1nc(F)nc(-c2c3ccccc3c3n2CCS3)n1`, the TGI in the assay on DLD-1 colon, with DMS 114 small cell lung, in the assay on KM20L2 colon, with LXFL 529 NSCLC, in the assay on M19-MEL melanoma and in the assay with SNB-78 CNS was more than 100 µM in each case. In the assay on XF 498 CNS, this molecule returned a TGI of more than 100 µM.
With `COC(=O)C(=O)C(C(=O)C(=O)Nc1ccccc1C(N)=O)c1nc2ccc(C(=O)c3ccccc3)cc2[nH]c1=O` (centres undefined), the TGI in the assay on DMS 114 small cell lung, in the assay with HOP-18 NSCLC, with KM20L2 colon, with LXFL 529 NSCLC, with M19-MEL melanoma and in the assay with RXF-631 renal was more than 100 µM throughout. The TGI with SNB-78 CNS and in the assay on XF 498 CNS was more than 100 µM in each case.
With `CCCCCCCCC(=O)NCCCNCCCNC(=O)CCCCCCCC`, the TGI in the assay on DLD-1 colon turned out to be 7.7 µM; in the assay with DMS 114 small cell lung, 8.79 µM; in the assay on HOP-18 NSCLC, 26.6 µM; in the assay with KM20L2 colon, 6.31 µM; in the assay with LXFL 529 NSCLC, 7.79 µM; with M19-MEL melanoma, 8.38 µM. Also, the TGI in the assay on SNB-78 CNS came out at 26 µM; with XF 498 CNS, 9.22 µM.
For `COc1ccccc1NC(=O)C(=O)C1C(=O)Nc2ccccc2S1=O` (centres undefined), the TGI with DLD-1 colon, in the assay on DMS 114 small cell lung, with HOP-18 NSCLC, with KM20L2 colon, in the assay on LXFL 529 NSCLC and in the assay with M19-MEL melanoma was more than 100 µM each time. The TGI in the assay with RXF-631 renal, with SNB-78 CNS and with XF 498 CNS was more than 100 µM throughout.
As for `CSc1nc2c(ncn2C2OCC(O)C(O)C2O)c(=O)[nH]1` (centres undefined), the TGI in the assay on DLD-1 colon, in the assay on DMS 114 small cell lung, in the assay on HOP-18 NSCLC, in the assay on KM20L2 colon, with M19-MEL melanoma and in the assay with P388/ADR leukemia was more than 100 µM each time. Moreover, the TGI in the assay on SN12K1 renal, in the assay on SNB-78 CNS and in the assay with XF 498 CNS was more than 100 µM each time.
For the molecule `O=C(CCN1CCCCC1CO)Nc1ccc2c(c1)C(=O)c1ccc(NC(=O)CCN3CCCCC3CO)cc1C2=O` (centres undefined), the TGI in the assay on DMS 114 small cell lung worked out at 30.9 µM; with KM20L2 colon, 76.4 µM; with LXFL 529 NSCLC, 9.71 µM; in the assay with M19-MEL melanoma it was 29.3 µM; in the assay on SNB-78 CNS, 34.6 µM.
